Where a name gives a salt, the structure may show the parent alone.
Key:
[1] = Naloxone HCl precipitation after freeze/thaw; type: physicochemical
Description: However, the solution remained opaque when thawed, and precipitation was evident. […] The precipitate could not be re-dissolved in solution following sonication. […]

[2] = Naloxone stability (visual precipitation) during storage at 4° C.; type: physicochemical
[3] = per 100 mL: EDTA-Na2 0 mg, PG 5% w/v
[4] = per 100 mL: EDTA-Na2 0 mg, PG 10% w/v
[5] = per 100 mL: EDTA-Na2 0 mg, PG 20% w/v
[6] = per 100 mL: EDTA-Na2 100 mg, PG 5% w/v
[7] = per 100 mL: EDTA-Na2 100 mg, PG 10% w/v
[8] = per 100 mL: EDTA-Na2 100 mg, PG 20% w/v

Structure (SMILES): C=CCN1CC[C@]23c4c5ccc(O)c4O[C@H]2C(=O)CC[C@@]3(O)[C@H]1C5 [naloxone HCl]
- Naloxone precipitation? ([1]; per mL: NaCl 3.7 mg, EDTA-Na2 2.0 mg, PG 20% w/v, EtOH 0% w/v, 1 freeze/thaw cycle): yes
- Naloxone precipitation? ([1]; per mL: NaCl 7.4 mg, EDTA-Na2 0.0 mg, PG 5% w/v, EtOH 0% w/v, 3 freeze/thaw cycles): No
- Naloxone precipitation? ([1]; per mL: NaCl 7.4 mg, EDTA-Na2 0.0 mg, PG 10% w/v, EtOH 0% w/v, 3 freeze/thaw cycles): no
- Naloxone precipitation? ([1]; per mL: NaCl 7.4 mg, EDTA-Na2 0.0 mg, PG 20% w/v, EtOH 0% w/v, 3 freeze/thaw cycles): no
- Naloxone precipitation? ([1]; per mL: NaCl 7.4 mg, EDTA-Na2 1.0 mg, PG 5% w/v, EtOH 0% w/v, 3 freeze/thaw cycles): no
- Naloxone precipitation? ([1]; per mL: NaCl 7.4 mg, EDTA-Na2 1.0 mg, PG 10% w/v, EtOH 0% w/v, 3 freeze/thaw cycles): no
- Naloxone precipitation? ([1]; per mL: NaCl 7.4 mg, EDTA-Na2 1.0 mg, PG 20% w/v, EtOH 0% w/v, 4 freeze/thaw cycles): no
- Naloxone precipitation? ([1]; per mL: NaCl 7.4 mg, EDTA-Na2 1.0 mg, PG 20% w/v, EtOH 0% w/v, 7 freeze/thaw cycles): no
- Naloxone precipitation? ([1]; per mL: NaCl 7.4 mg, EDTA-Na2 2.0 mg, PG 10% w/v, EtOH 0% w/v, 1 freeze/thaw cycle): yes
- Naloxone precipitation? ([1]; per mL: NaCl 7.4 mg, EDTA-Na2 2.0 mg, PG 20% w/v, EtOH 0% w/v, 1 freeze/thaw cycle): yes
- Naloxone precipitation? ([1]; per mL: NaCl 7.4 mg, EDTA-Na2 2.0 mg, PG 20% w/v, EtOH 2% w/v, 1 freeze/thaw cycle): yes
- Naloxone precipitation? ([1]; per mL: NaCl 7.4 mg, EDTA-Na2 2.0 mg, PG 20% w/v, EtOH 5% w/v, 1 freeze/thaw cycle): yes
- Naloxone precipitation? ([1]; per mL: NaCl 7.4 mg, EDTA-Na2 2.0 mg, PG 20% w/v, EtOH 10% w/v, 1 freeze/thaw cycle): yes
- Naloxone precipitation? ([1]; per mL: NaCl 7.4 mg, EDTA-Na2 2.0 mg, PG 30% w/v, EtOH 0% w/v, 1 freeze/thaw cycle): yes

Structure (SMILES): C=CCN1CC[C@]23c4c5ccc(O)c4O[C@H]2C(=O)CC[C@@]3(O)[C@H]1C5 [Naloxone]
- Observed naloxone precipitation 24 days [2, 3]: No
- Observed naloxone precipitation 35 days [2, 3]: No
- Observed naloxone precipitation 53 days [2, 3]: No
- Observed naloxone precipitation 24 days [2, 4]: No
- Observed naloxone precipitation 35 days [2, 4]: No
- Observed naloxone precipitation 53 days [2, 4]: No
- Observed naloxone precipitation 24 days [2, 5]: No
- Observed naloxone precipitation 35 days [2, 5]: No
- Observed naloxone precipitation 53 days [2, 5]: No
- Observed naloxone precipitation 24 days [2, 6]: No
- Observed naloxone precipitation 35 days [2, 6]: No
- Observed naloxone precipitation 53 days [2, 6]: No
- Observed naloxone precipitation 24 days [2, 7]: No
- Observed naloxone precipitation 35 days [2, 7]: No
- Observed naloxone precipitation 53 days [2, 7]: No and Slight
- Observed naloxone precipitation 24 days [2, 8]: No and Slight
- Observed naloxone precipitation 35 days [2, 8]: No and Yes
- Observed naloxone precipitation 53 days [2, 8]: No and Yes

From patent US20180193332A1, “LOW-TEMPERATURE STABLE OPIOID ANTAGONIST SOLUTIONS” (priority 2017, published 2018)
